Laboratory results: patent US20150148551A1, “GENISTEIN FOR REDUCING LEVELS OF STORAGE COMPOUNDS IN THE TREATMENT AND/OR PREVENTION OF LYSOSOMAL STORAGE DISEASES (LSDS)” (3G THERAPEUTICS, INC., priority 2012, published 2015)

What was measured:
[1] = test system: MPS II and III; details: animal tests and pilot clinical trials; cited from earlier work
[2] = test system: SMPD1; assay: DNA microarray, SMPD1 expression in fibroblasts exposed to genistein; assay type: cell-based, human; details: for SMPD1 fold change Average: 48 h vs DMSO
Experimental: (§1) The experiments were conducted to characterise the transcriptomic profile of human fibroblast cells exposed to genistein, and in particular to determine the expression of genes encoding lysosomal enzymes involved in metabolism (i.e. synthesis and degradation) of organic substances. The absence or deficiency of these enzymes' activity is responsible for occurrence of various lysosomal storage diseases (LSD) (including MPS). The tested hypothesis assumed that genistein influences the expression of many genes, among which there are genes coding for enzymes required in metabolism of compounds, which are pathologically stored in LSD. The results provide important information regarding genistein action on the molecular level within the range of gene expression modulation by this substance. The experiment was conducted in biological quintuplicates. Human dermal fibroblasts (HDFa) were exposed in vitro for 1, 24 or 48 hours to: 30, 60 or 100 μM of genistein; 0.05% DMSO (K1); or were untreated (control cells) (K2), and total RNA was isolated and analysed.
(§2) Fibroblast cells were grown in Dulbecco (DMEM) medium supplemented with 10% fetal bovine serum (FBS) with the addition of 1% antibiotics and anti-fungal agents at 37° C. in humidified atmosphere of 5% CO2, until the required confluency was obtained.
(§3) To determine the effect of tested compound on the transcriptom of the fibroblast cells, the growth medium was replaced with fresh medium, either non-supplemented (0.05% DMSO), or containing genistein (30, 60 or 100 μM, in 0.05% DMSO). The exposure was done for 1, 24 or 48 hours.
(§4) Total RNA was isolated from fibroblasts using High Pure RNA Isolation Kit according to the protocol and then it was quantitatively evaluated using Quant-It™ RiboGreen® Assay Kit.
(§5) Biotinylated cRNA was prepared using Ambion Total PrepAmp Kit for Illumina arrays.
(§6) Standard hybridization and quantitative image analysis procedures—Illumina hybridization protocol and Illumina scanning protocol, were used.
(§7) Processing of the results was done during data definition, including: background correction (using background subtraction method), normalization (using quantile normalization algorithm with Illumina GenomeStudio software package: gene expression module version 1.9.0) and summarization (using method, which sums the values of signal intensities from a set of probes).

[3] = test system: CTSF; assay: DNA microarray, CTSF expression in fibroblasts exposed to genistein; assay type: cell-based, human; details: for CTSF fold change Average: 48 h vs DMSO
Experimental: as §1, §2, §3, §4, §5, §6, §7

[4] = test system: CTSK; assay: DNA microarray, CTSK expression in fibroblasts exposed to genistein; assay type: cell-based, human; details: for CTSK fold change Average: 48 h vs DMSO
Experimental: as §1, §2, §3, §4, §5, §6, §7

[5] = test system: CTSO; assay: DNA microarray, CTSO expression in fibroblasts exposed to genistein; assay type: cell-based, human; details: for CTSO fold change Average: 48 h vs DMSO
Experimental: as §1, §2, §3, §4, §5, §6, §7

[6] = test system: NAGLU; assay: DNA microarray, NAGLU expression in fibroblasts exposed to genistein; assay type: cell-based, human; details: for NAGLU fold change Average: 48 h vs DMSO
Experimental: as §1, §2, §3, §4, §5, §6, §7

[7] = test system: ASAH1; assay: DNA microarray, ASAH1 expression in fibroblasts exposed to genistein; assay type: cell-based, human; details: for ASAH1 fold change Average: 48 h vs DMSO
Experimental: as §1, §2, §3, §4, §5, §6, §7

[8] = test system: GAPDH; assay: DNA microarray, GAPDH reference gene expression in fibroblasts exposed to genistein; assay type: cell-based, human
Experimental: as §1, §2, §3, §4, §5, §6, §7

O=c1c(-c2ccc(O)cc2)coc2cc(O)cc(O)c12 [genistein, 4′,5,7-trihydroxy-3-phenylchromen-4-one]
effectiveness in the treatment of MPS II and III [1]: promising effectiveness
SMPD1 fold change Average 1h30/1hK1 ([2]; 30 μM, 1 h vs 0.05% DMSO): 1.0078 fold change
SMPD1 fold change Average ([2]; 30 μM): 1.2419 fold change
SMPD1 fold change Average 1h60/1hK1 ([2]; 60 μM, 1 h vs 0.05% DMSO): 0.9831 fold change
SMPD1 fold change Average ([2]; 60 μM): 1.457 fold change
SMPD1 fold change Average 1h100/1hK1 ([2]; 100 μM, 1 h vs 0.05% DMSO): 1.012 fold change
SMPD1 fold change Average ([2]; 100 μM): 1.673 fold change
CTSF fold change Average 1h30/1hK1 ([3]; 30 μM, 1 h vs 0.05% DMSO): 1.0096 fold change
CTSF fold change Average ([3]; 30 μM): 1.417 fold change
CTSF fold change Average 1h60/1hK1 ([3]; 60 μM, 1 h vs 0.05% DMSO): 0.9505 fold change
CTSF fold change Average ([3]; 60 μM): 1.8 fold change
CTSF fold change Average 1h100/1hK1 ([3]; 100 μM, 1 h vs 0.05% DMSO): 0.9458 fold change
CTSF fold change Average ([3]; 100 μM): 2.066 fold change
CTSK fold change Average 1h30/1hK1 ([4]; 30 μM, 1 h vs 0.05% DMSO): 0.9778 fold change
CTSK fold change Average ([4]; 30 μM): 1.2621 fold change
CTSK fold change Average 1h60/1hK1 ([4]; 60 μM, 1 h vs 0.05% DMSO): 1.108 fold change
CTSK fold change Average ([4]; 60 μM): 1.387 fold change
CTSK fold change Average 1h100/1hK1 ([4]; 100 μM, 1 h vs 0.05% DMSO): 0.9868 fold change
CTSK fold change Average ([4]; 100 μM): 1.541 fold change
CTSO fold change Average 1h30/1hK1 ([5]; 30 μM, 1 h vs 0.05% DMSO): 0.9973 fold change
CTSO fold change Average ([5]; 30 μM): 1.2507 fold change
CTSO fold change Average 1h60/1hK1 ([5]; 60 μM, 1 h vs 0.05% DMSO): 1 fold change
CTSO fold change Average ([5]; 60 μM): 1.276 fold change
CTSO fold change Average 1h100/1hK1 ([5]; 100 μM, 1 h vs 0.05% DMSO): 1.07 fold change
CTSO fold change Average ([5]; 100 μM): 1.471 fold change
NAGLU fold change Average 1h30/1hK1 ([6]; 30 μM, 1 h vs 0.05% DMSO): 1.055 fold change
NAGLU fold change Average ([6]; 30 μM): 1.1022 fold change
NAGLU fold change Average 1h60/1hK1 ([6]; 60 μM, 1 h vs 0.05% DMSO): 1.061 fold change
NAGLU fold change Average ([6]; 60 μM): 1.231 fold change
NAGLU fold change Average 1h100/1hK1 ([6]; 100 μM, 1 h vs 0.05% DMSO): 1.037 fold change
NAGLU fold change Average ([6]; 100 μM): 1.303 fold change
ASAH1 fold change Average 1h30/1hK1 ([7]; 30 μM, 1 h vs 0.05% DMSO): 1.1419 fold change
ASAH1 fold change Average ([7]; 30 μM): 1.0802 fold change
ASAH1 fold change Average 1h60/1hK1 ([7]; 60 μM, 1 h vs 0.05% DMSO): 1.029 fold change
ASAH1 fold change Average ([7]; 60 μM): 1.412 fold change
ASAH1 fold change Average 1h100/1hK1 ([7]; 100 μM, 1 h vs 0.05% DMSO): 1.252 fold change
ASAH1 fold change Average ([7]; 100 μM): 1.52 fold change
GAPDH fold change Average 1h30/1hK1 ([8]; 30 μM, 1 h vs 0.05% DMSO): 0.9592 fold change
GAPDH fold change Average 24h30/24hK1 ([8]; 30 μM, 24 h vs 0.05% DMSO): 0.93 fold change
GAPDH fold change Average 48h30/48hK1 ([8]; 30 μM, 48 h vs 0.05% DMSO): 0.9412 fold change
GAPDH fold change Average 1h60/1hK1 ([8]; 60 μM, 1 h vs 0.05% DMSO): 0.9817 fold change
GAPDH fold change Average 24h60/24hK1 ([8]; 60 μM, 24 h vs 0.05% DMSO): 0.8905 fold change
GAPDH fold change Average 48h60/48hK1 ([8]; 60 μM, 48 h vs 0.05% DMSO): 0.8088 fold change
GAPDH fold change Average 1h100/1hK1 ([8]; 100 μM, 1 h vs 0.05% DMSO): 0.9385 fold change
GAPDH fold change Average 24h100/24hK1 ([8]; 100 μM, 24 h vs 0.05% DMSO): 0.9556 fold change
GAPDH fold change Average 48h100/48hK1 ([8]; 100 μM, 48 h vs 0.05% DMSO): 0.8652 fold change
